This passage reports EC50 results from patent publication US9938222B2 (BRISTOL-MYERS SQUIBB COMPANY, priority 2014, dated 2018).

The assay addresses human GPR120 (Homo sapiens (Human), UniProt Q5NUL3). The experiment in a line: GPR120 pERK AlphaScreen SureFire Assay (human GPR120 pERK assay). The note with it: CHO cells stably transfected with short form of human GPR120. The format is cell-based. An excerpt: GPR120 activity was monitored by measuring phosphorylation of ERK (pERK), since G protein receptors are known to activate the ERK signaling cascade either directly and/or through recruitment of arrestin that serves as a scaffold for downstream signaling events.
GPR120 pERK AlphaScreen SureFire Assay
The human and mouse GPR120-mediated intracellular phosphorylated ERK assays were established using CHOA12 cells stably transfected with the short form of human or mouse GPR120 receptor. Cells were cultured in growth medium consisting of F-12 media (Invitrogen Cat. #11765) with 5% Charcoal/Dextran FBS (Invitrogen Cat. #12676-029), 500 μg/mL GENETICIN® (Life Technologies Cat. #10131-027) and 250 μg/mL Zeocin (Invitrogen Cat. #R250-01). Cells were cryo-preserved at a concentration of 2×10^7 cells/mL, in 90% Charcoal/Dextran FBS and 10% DMSO, and frozen in liquid nitrogen at a low passage number.
For the pERK assay, 2×10^7 cells/mL cryopreserved human and mouse cells were thawed rapidly in a 37° C. water bath and added to a T-225 flask containing 50 mL growth medium. The flasks were placed in a tissue culture incubator overnight (37° C., 5% CO2). The next day, cells were harvested with trypsin (Gibco Cat. #25300-054), resuspended in serum-containing growth medium and counted using a Cellometer and volume adjusted to a concentration of 0.6×10^6 cells/mL. Cells were plated into 384-well clear bottom tissue culture plates (BD Cat. #353962) at 50 μL/well, for a density of 30,000 cells/well using a MULTIDROP® and incubated for 16-18 hours (overnight) at 37° C. with 5% CO2. The next day, cells were serum starved in 30 μL of F-12 media without any serum or antibiotics for 2 hours at 37° C.
Test compounds were 3-fold, 11-point serially diluted in DMSO in a REMP assay plate (Matrix Cat. #4307) by Tecan and 5 μL was transferred into an ECHO source plate (Labcyte Cat. #LC-0200). Cells were then stimulated with 50 nL of compound dilutions using ECHO liquid handler for 7 min at 37° C. Compounds ranged from final assay concentrations of 33.33 μM to 0.56 nM.
The media was then dumped and cells lysed with 20 μL of 1× Lysis buffer from the AlphaScreen SureFire Phospho-ERK 1/2 Kit (Perkin Elmer Cat. #6760617M). The lysis buffer was diluted 5-fold with water before use. The plate was agitated on a shaker for 10 min after which 2 μL was transferred into a 384-well white proxiplate (Perkin Elmer Cat. #6008289). The SureFire assay reagent mix was prepared by mixing 60 parts Reaction Buffer, 10 parts Activation Buffer, 1 part Donor Beads, 1 part Acceptor Beads (Perkin Elmer Cat. #TGRES10K). 3.5 μL/well of this reagent mix was manually added to the proxiplate with a multichannel pipettor. Plates were spun down at 1000 rpm for 2 min, followed by light-protected incubation at room temperature for 2 hours. The plates were read on the Alpha-technology compatible Envision multilabel plate reader using AlphaScreen protocol according to manufacturer's specifications. The agonist effect of compounds was expressed as 100×(average sample-average blank)/(average total-average blank) where sample is the luminescence activity in the presence of test compound, blank is equal to the luminescence activity in the presence of DMSO control and the total is signal induced by 50 μM linolenic acid as reference compound. Activation data for the test compound over a range of concentrations was plotted as percentage activation of the test compound (100%=maximum response). After correcting for background, EC50 values were determined. The EC50 is defined as the concentration of test compound which produces 50% of the maximal response and was quantified using the 4 parameter logistic equation to fit the data.
The human and mouse GPR120-mediated intracellular phosphorylated ERK assays were also established using CHO-K1 cells stably transfected with the short form of human or mouse GPR120 receptor. […]
(Alpha assays give light when donor and acceptor beads are brought close together.)

Each structure is given as a SMILES string.

Sequence of human GPR120 (Q5NUL3 whole entry): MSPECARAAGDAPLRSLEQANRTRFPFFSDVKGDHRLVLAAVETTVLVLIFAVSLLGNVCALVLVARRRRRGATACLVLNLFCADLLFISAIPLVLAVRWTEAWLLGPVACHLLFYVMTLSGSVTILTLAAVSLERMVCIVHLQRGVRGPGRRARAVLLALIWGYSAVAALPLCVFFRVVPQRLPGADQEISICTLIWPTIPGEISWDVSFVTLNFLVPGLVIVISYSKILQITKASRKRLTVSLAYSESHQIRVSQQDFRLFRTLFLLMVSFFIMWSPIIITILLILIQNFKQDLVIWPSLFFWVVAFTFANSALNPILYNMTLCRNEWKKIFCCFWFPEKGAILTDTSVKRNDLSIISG

The compound `CC(C)Oc1cc(-c2ccc(OC[C@@H]3C[C@H]3C(=O)O)cc2)c(F)c(C(F)(F)F)c1` (racemic) [Example 49, Trans-2-(((2′-fluoro-5′-isopropoxy-3′-(trifluoromethyl)-[1,1′-biphenyl]-4-yl)oxy)methyl)cyclopropanecarboxylic acid] had an EC50 of 1670 nM. The figure for `Cc1ccc(Oc2cc(F)c(F)c(-c3ccc(OCC4CC4C(=O)O)c(F)c3)c2)cc1F` (single isomer, unassigned) [Example 108] is 360 nM; for `O=C(O)C1CC1COc1ccc(-c2cc(OC(F)(F)F)ccc2F)cc1` (single isomer, unassigned) [Example 52, Trans-2-(((2′-fluoro-5′-(trifluoromethoxy)-[1,1′-biphenyl]-4-yl)oxy)methyl)cyclopropanecarboxylic acid] it is 620 nM; for `COc1ccc(OC(F)(F)F)cc1-c1ccc(CC[C@@H]2C[C@H]2C(=O)O)cc1` (racemic) [Example 79, Trans-2-(2-(2′-methoxy-5′-(trifluoromethoxy)-[1,1′-biphenyl]-4-yl)ethyl)cyclopropanecarboxylic acid] it is 1440 nM.

In turn, `CC(C)Oc1cc(Cl)cc(-c2ccc(OC[C@H]3C[C@@H]3C(=O)O)c(F)c2)c1` (single isomer, unassigned) [Example 14] yielded a concentration giving a half-maximal response (EC50) of 830 nM. Regarding `Cc1ccc(Oc2ccc(F)c(-c3ccc(OCC4CC4C(=O)O)c(F)c3)c2)cc1F` (single isomer, unassigned) [Example 101, Trans-2-(((2′,3-difluoro-5′-(3-fluoro-4-methylphenoxy)-[1,1′-biphenyl]-4-yl)oxy)methyl)cyclopropanecarboxylic acid], the half-maximal effective concentration (EC50) was determined as 130 nM. Consider `COc1cc(-c2cc(Oc3cccc(F)c3)ccc2F)ccc1OC[C@@H]1C[C@H]1C(=O)O` (relative stereo) [Example 99, Trans-2-(((2′-fluoro-5′-(3-fluorophenoxy)-3-methoxy-[1,1′-biphenyl]-4-yl)oxy)methyl) cyclopropanecarboxylic acid], for which the EC50 is 1140 nM. Consider `Cc1cc(-c2cc(OC(C)C)ccc2F)ccc1OC[C@@H]1C[C@H]1C(=O)O` (racemic) [Example 46, Trans-2-(((2′-fluoro-5′-isopropoxy-3-methyl-[1,1′-biphenyl]-4-yl)oxy)methyl)cyclopropanecarboxylic acid], for which the EC50 was 310 nM. On to `CC(C)Oc1cc(F)c(F)c(-c2ccc(OC[C@@H]3C[C@H]3C(=O)O)cc2F)c1` (racemic) [Example 61, Trans-2-(((2,2′,3′-trifluoro-5′-isopropoxy-[1,1′-biphenyl]-4-yl)oxy)methyl)cyclopropanecarboxylic acid], for which the concentration for a half-maximal effect (EC50) turned out to be 2780 nM. On to `O=C(O)[C@@H]1CC1COc1ccc(-c2cc(Oc3cccc(F)c3)ccc2F)cc1F` (stereo partly drawn) [Example 97], for which the half-maximal effective concentration (EC50) is 70 nM. The compound `CC(C)Oc1ccc(Cl)c(-c2ccc(OC[C@@H]3C[C@H]3C(=O)O)c(F)c2)c1` (racemic) [Example 18, Trans-2-(((2′-chloro-3-fluoro-5′-isopropoxy-[1,1′-biphenyl]-4yl)oxy)methyl) cyclopropanecarboxylic acid] came in with an EC50 of 210 nM.

For the compound `O=C(O)[C@@H]1C[C@H]1COc1ccc(-c2cc(Oc3ccc(F)c(F)c3)ccc2F)cc1` (racemic) [Example 91, Trans-2-(((5′-(3,4-difluorophenoxy)-2′-fluoro-[1,1′-biphenyl]-4-yl)oxy)methyl) cyclopropanecarboxylic acid], the EC50 came to 310 nM. In turn, `Cc1ccc(Oc2ccc(F)c(-c3ccc(OCC4CC4C(=O)O)c(F)c3)c2)cc1F` (single isomer, unassigned) [Example 102, Trans-2-(((2′,3-difluoro-5′-(3-fluoro-4-methylphenoxy)-[1,1′-biphenyl]-4-yl)oxy)methyl)cyclopropanecarboxylic acid] returned a concentration giving a half-maximal response (EC50) of 270 nM. The figure for `COc1ccc(F)c(-c2ccc(CC[C@@H]3C[C@H]3C(=O)O)cc2)c1` (relative stereo) [Example 80, Trans-2-(2-(2′-fluoro-5′-methoxy-[1,1′-biphenyl]-4-yl)ethyl) cyclopropanecarboxylic acid] is 3260 nM; for `O=C(O)[C@H]1CC1COc1ccc(-c2cc(Oc3cccc(F)c3)cnc2Cl)cc1` (stereo partly drawn) [Example 113] it is 120 nM. The figure for `O=C(O)[C@H]1C[C@@H]1COc1ccc(-c2cc(Oc3ccccc3)ccc2F)cc1F` (racemic) [Example 9, (Trans)-(+/−)-2-(((2′,3-difluoro-5′-phenoxy-[1,1′-biphenyl]-4-yl)oxy)methyl) cyclopropanecarboxylic acid] is 80 nM; for `CC(C)Oc1cc(Cl)cc(-c2ccc(CC[C@@H]3C[C@H]3C(=O)O)cc2)c1` (relative stereo) [Example 132, Trans-2-(2-(3′-chloro-5′-isopropoxy-[1,1′-biphenyl]-4-yl)ethyl) cyclopropanecarboxylic acid] it is 2440 nM; for `CC(C)Oc1ccc(F)c(-c2ccc(CC[C@H]3C[C@]3(C)C(=O)O)cc2)c1` (racemic) [Example 41, Trans-2-(2-(2′-fluoro-5′-isopropoxy-[1,1′-biphenyl]-4-yl)ethyl)-1-methylcyclopropanecarboxylic acid] it is 860 nM.

Consider `CC(C)Oc1ccc(F)c(-c2ccc(CC[C@@H]3C[C@@H]3C(=O)O)cc2)c1` (single isomer, unassigned) [Example 17], for which the EC50 was determined as 200 nM. The figure for `Cc1nn(Cc2ccccc2)cc1-c1ccc(OC[C@@H]2C[C@H]2C(=O)O)cc1` (racemic) [Example 84, Trans-2-((4-(1-benzyl-3-methyl-1H-pyrazol-4-yl)phenoxy)methyl) cyclopropanecarboxylic acid] is 4310 nM.

As for `CC(C)Oc1ccc(Cl)c(-c2ccc(CC[C@@H]3C[C@H]3C(=O)O)cc2)c1` (relative stereo) [Example 133, Trans-2-(2-(2′-chloro-5′-isopropoxy-[1,1′-biphenyl]-4-yl)ethyl) cyclopropanecarboxylic acid], the 50% effective concentration (EC50) stood at 1860 nM. With `Cc1ccc(Oc2ccc(F)c(-c3ccc(OCC4C[C@@H]4C(=O)O)cc3)c2)cn1` (stereo partly drawn) [Example 116] the figure was 90 nM; with `CC(C)Oc1cc(F)c(F)c(-c2ccc(OC[C@H]3C[C@@H]3C(=O)O)c(F)c2)c1` [Example 67, (1S,2S)-2-(((2′,3,3′-Trifluoro-5′-isopropoxy-[1,1′-biphenyl]-4-yl)oxy)methyl)cyclopropanecarboxylic acid], 230 nM; with `CC(C)Oc1ccc(F)c(-c2ccc(CC[C@@H]3C[C@H]3C(=O)O)cc2)c1` (racemic) [Example 30, Trans-2-(2-(2′-fluoro-5′-isopropoxy-[1,1′-biphenyl]-4-yl)ethyl)cyclopropanecarboxylic acid], 320 nM.

With `CC(C)Oc1ccc(F)c(-c2ccc(C[C@H]3C[C@H]3CC(=O)O)cc2)c1` (racemic) [Example 34, Cis-2-(2-((2′-fluoro-5′-isopropoxy-[1,1′-biphenyl]-4-yl)methyl)cyclopropyl)acetic acid], the EC50 was 430 nM.

In the case of `O=C(O)[C@@H]1C[C@H]1COc1ccc(-c2cc(C(F)(F)F)cnc2Cl)cc1` (racemic) [Example 122, Trans-2-((4-(2-chloro-5-(trifluoromethyl)pyridin-3-yl)phenoxy)methyl)cyclopropanecarboxylic acid], the response was half-maximal at 1350 nM (EC50). The figure for `O=C(O)[C@@H]1C[C@H]1COc1ccc(-c2cc(Oc3ccc(F)cc3)ccc2F)cc1` (racemic) [Example 44, Trans-2-(((2′-fluoro-5′-(4-fluorophenoxy)-[1,1′-biphenyl]-4-yl)oxy)methyl)cyclopropanecarboxylic acid] is 270 nM.

In general, EC50 refers to the concentration giving half of the maximal effect. Low readings indicate a more potent agent, high ones a less potent agent.
